For data set [1], the target named is FXa (Homo sapiens, UniProt P00742). In words: Inhibition of factor Xa (FXa-IC50). The format is biochemical. The source says: The inhibition of factor Xa by the compounds according to the invention and the measurement of the anticoagulant and antithrombotic activity can be determined by conventional in-vitro or in-vivo methods. A suitable method is described, for example, by J. Hauptmann et al. in Thrombosis and Haemostasis 1990, 63, 220-223.
The inhibition of factor Xa can be measured, for example by the method of T. Hara et al. in Thromb. Haemostas. 1994, 71, 314-319.

The structures appear in SMILES notation.

FXa, sequence (P00742 235-488 limits assumed): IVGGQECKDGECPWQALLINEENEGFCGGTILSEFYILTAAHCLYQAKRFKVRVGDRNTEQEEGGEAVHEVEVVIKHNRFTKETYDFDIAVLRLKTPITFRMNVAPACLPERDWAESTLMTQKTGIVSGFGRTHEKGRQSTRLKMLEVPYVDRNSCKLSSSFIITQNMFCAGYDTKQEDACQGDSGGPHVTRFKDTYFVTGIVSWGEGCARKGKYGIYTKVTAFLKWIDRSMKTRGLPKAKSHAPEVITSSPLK
FXa, sequence (P00742 41-179 limits assumed): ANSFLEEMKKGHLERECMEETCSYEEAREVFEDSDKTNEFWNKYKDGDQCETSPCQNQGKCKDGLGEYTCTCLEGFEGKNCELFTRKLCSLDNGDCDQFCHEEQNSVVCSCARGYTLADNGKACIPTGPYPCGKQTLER

Regarding `COCC(=O)N(C)c1ccc(NC(=O)[C@H]2C[C@@H](O)CN2C(=O)Nc2ccc(Cl)cc2)cc1` [Compound A4, 1-N-(4-Chlorophenyl)-2-N-{4-[(2-methoxyethanoyl)methylamino]phenyl}-(2R,4R)-4-hydroxypyrrolidine-1,2-dicarboxamide], the melting point stood at 84 °C.
For the compound `CN(C(=O)CN1CCC(O)CC1)c1ccc(NC(=O)[C@H]2C[C@@H](O)CN2C(=O)Nc2ccc(Cl)cc2)cc1` [Compound A1-2, 1-N-(4-chlorophenyl)-2-N-{4-[(2-(4-hydroxypiperidin-1-yl)ethanoyl)-methylamino]phenyl}-(2R,4R)-4-hydroxypyrrolidine-1,2-dicarboxamide], 37 nM corresponded to half-maximal inhibition in data set [1] (IC50).
In the case of `CCNCC(=O)N(C)c1ccc(NC(=O)[C@H]2C[C@@H](O)CN2C(=O)Nc2ccc(Cl)cc2)cc1` [Compound A3, 1-N-(4-Chlorophenyl)-2-N-{4-[(2-ethylaminoethanoyl)methylamino]-phenyl}-(2R,4R)-4-hydroxypyrrolidine-1,2-dicarboxamide], the melting point came to 121 °C. This compound displayed a half-inhibitory concentration (IC50) in data set [1] of 17 nM.
Turning to `CN(C(=O)CN1CCOCC1)c1ccc(NC(=O)[C@H]2C[C@@H](O)CN2C(=O)Nc2ccc(Cl)cc2)cc1` [Compound A1-1, 1-N-(4-chlorophenyl)-2-N-{4-[(2-(morpholin-4-yl)ethanoyl)methylamino]phenyl}-(2R,4R)-4-hydroxypyrrolidine-1,2-dicarboxamide], the half-maximal inhibitory concentration (IC50) in data set [1] is 54 nM.
On to `CN(C)CC(=O)N(C)c1ccc(NC(=O)[C@H]2C[C@@H](O)CN2C(=O)Nc2ccc(Cl)cc2)cc1` [Compound A1, 1-N-(4-Chlorophenyl)-2-N-{4-[(2-dimethylaminoethanoyl)methylamino]-phenyl}-(2R,4R)-4-hydroxypyrrolidine-1,2-dicarboxamide], for which the melting point amounted to 95 °C.

By melting point is commonly meant the temperature of the solid-liquid transition. In general, IC50 refers to the concentration needed to halve the response being measured. Read a high IC50 as weaker potency in that assay.
